In patent US20240092784A1, “CONDENSED HETEROCYCLIC COMPOUND” (NISSAN CHEMICAL CORPORATION, priority 2020, published 2024):
Counter-ions that a name gives are not always drawn.

The compounds below were run against human SPR (Homo sapiens (Human), UniProt P35270) (assay: Evaluation Example 2: Measurement of human SPR inhibitory activity (seven concentrations, sepiapterin absorbance at 420 nm)). Conditions: Evaluation Example 2, seven concentrations 0.14 nM to 100 nM, 240 minutes at room temperature, read-out: IC50.
Sequence of human SPR (P35270 whole entry): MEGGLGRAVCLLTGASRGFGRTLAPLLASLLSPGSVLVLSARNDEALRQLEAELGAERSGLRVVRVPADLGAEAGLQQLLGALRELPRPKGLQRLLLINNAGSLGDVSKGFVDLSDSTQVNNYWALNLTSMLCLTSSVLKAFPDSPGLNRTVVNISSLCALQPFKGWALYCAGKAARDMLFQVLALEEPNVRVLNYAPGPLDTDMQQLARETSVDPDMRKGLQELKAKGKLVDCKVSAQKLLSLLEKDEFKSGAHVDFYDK
Assay type: biochemical
In short: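 His-tagged full-length human SPR (1-261) was expressed in E. coli and the tag removed. Enzyme at 150 ng/mL in 100 mM Tris-HCl pH 7.5/0.01% BSA was mixed with compound (0.14–100 nM, seven points), 120 μM sepiapterin and 160 μM NADPH, both as added-solution concentrations. After 240 min at room temperature, remaining sepiapterin was read at 420 nm to give percent inhibition.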
Compound `CC(C)(C)Cn1c(=O)c(C(=O)NC2CC2)c(O)n2nc(N)c(/C=C/C3CCOC3)c12` (centres unmarked) [Synthesis Example 444, (E)-2-Amino-N-cyclopropyl-7-hydroxy-4-neopentyl-5-oxo-3-(2-(tetrahydrofuran-3-yl)vinyl)-4,5-dihydropyrazolo[1,5-a]pyrimidine-6-carboxamide hydrochloride] has an IC50 of 0.98 nM. `CC1(Cn2c(=O)c(C(=O)NC3CC3)c(O)n3nc(N)c(/C=C/C4CCOCC4)c23)CCOCC1` [Synthesis Example 445, (E)-2-Amino-N-cyclopropyl-7-hydroxy-4-((4-methyltetrahydro-2H-pyran-4-yl)methyl)-5-oxo-3-(2-(tetrahydro-2H-pyran-4-yl)vinyl)-4,5-dihydropyrazolo[1,5-a]pyrimidine-6-carboxamide hydrochloride] was tested, and the IC50 was 0.66 nM. With `COC[C@H]1CCCN1C(=O)/C=C/c1c(C)nn2c(O)c(C(=O)NC3CC3)c(=O)n(CC(C)C)c12` [Synthesis Example 612, (R,E)-N-Cyclopropyl-7-hydroxy-4-isobutyl-3-(3-(2-(methoxymethyl)pyrrolidin-1-yl)-3-oxoprop-1-en-1-yl)-2-methyl-5-oxo-4,5-dihydropyrazolo[1,5-a]pyrimidine-6-carboxamide] the IC50 was 1.23 nM. In the case of `COC[C@@H]1CCCN1C(=O)/C=C/c1c(C)nn2c(O)c(C(=O)NC3CC3)c(=O)n(CC(C)C)c12` [Synthesis Example 613, (S,E)-N-Cyclopropyl-7-hydroxy-4-isobutyl-3-(3-(2-(methoxymethyl)pyrrolidin-1-yl)-3-oxoprop-1-en-1-yl)-2-methyl-5-oxo-4,5-dihydropyrazolo[1,5-a]pyrimidine-6-carboxamide], the IC50 is reported as 1.04 nM. With `Cc1nn2c(O)c(C(=O)NC3CC3)c(=O)n(CC(C)C)c2c1/C=C/C(=O)N1CCC(C(F)(F)F)C1` (centres unmarked) [Synthesis Example 614, (E)-N-Cyclopropyl-7-hydroxy-4-isobutyl-2-methyl-5-oxo-3-(3-oxo-3-(3-(trifluoromethyl)pyrrolidin-1-yl)prop-1-en-1-yl)-4,5-dihydropyrazolo[1,5-a]pyrimidine-6-carboxamide] the IC50 was 1.49 nM. In the case of `Cc1nn2c(O)c(C(=O)NC3CC3)c(=O)n(CC(C)C)c2c1/C=C/C(=O)N1CCN(C2CC(F)(F)C2)CC1` [Synthesis Example 615, (E)-N-Cyclopropyl-3-(3-(4-(3,3-difluorocyclobutyl)piperazin-1-yl)-3-oxoprop-1-en-1-yl)-7-hydroxy-4-isobutyl-2-methyl-5-oxo-4,5-dihydropyrazolo[1,5-a]pyrimidine-6-carboxamide], the IC50 is reported as 1.4 nM. For `Cc1nn2c(O)c(C(=O)NC3CC3)c(=O)n(CC(C)C)c2c1/C=C/C(=O)N1[C@H](C)CC[C@H]1C` [Synthesis Example 616, N-Cyclopropyl-3-((E)-3-((2R,5R)-2,5-dimethylpyrrolidin-1-yl)-3-oxoprop-1-en-1-yl)-7-hydroxy-4-isobutyl-2-methyl-5-oxo-4,5-dihydropyrazolo[1,5-a]pyrimidine-6-carboxamide], the IC50 was 1.12 nM. `Cc1nn2c(O)c(C(=O)NC3CC3)c(=O)n(CC(C)C)c2c1/C=C/C(=O)N1[C@@H](C)CC[C@@H]1C` [Synthesis Example 617, N-Cyclopropyl-3-((E)-3-((2S,5S)-2,5-dimethylpyrrolidin-1-yl)-3-oxoprop-1-en-1-yl)-7-hydroxy-4-isobutyl-2-methyl-5-oxo-4,5-dihydropyrazolo[1,5-a]pyrimidine-6-carboxamide] was tested, and the IC50 was 1.04 nM. For `Cc1nn2c(O)c(C(=O)NC3CC3)c(=O)n(CC(C)C)c2c1/C=C/C(=O)N1[C@H](C)CC[C@@H]1C` [Synthesis Example 618, N-Cyclopropyl-3-((E)-3-(cis-2,5-dimethylpyrrolidin-1-yl)-3-oxoprop-1-en-1-yl)-7-hydroxy-4-isobutyl-2-methyl-5-oxo-4,5-dihydropyrazolo[1,5-a]pyrimidine-6-carboxamide], the IC50 was 1.8 nM. `Cc1nn2c(O)c(C(=O)NC3CC3)c(=O)n(CC(C)C)c2c1/C=C/C(=O)N1CCCC1C1CC1` (centres unmarked) [Synthesis Example 619, (E)-N-Cyclopropyl-3-(3-(2-cyclopropylpyrrolidin-1-yl)-3-oxoprop-1-en-1-yl)-7-hydroxy-4-isobutyl-2-methyl-5-oxo-4,5-dihydropyrazolo[1,5-a]pyrimidine-6-carboxamide] was tested, and the IC50 was 1.58 nM. With `COC[C@H]1CCN(C(=O)/C=C/c2c(C)nn3c(O)c(C(=O)NC4CC4)c(=O)n(CC(C)C)c23)C1` [Synthesis Example 620, (S,E)-N-Cyclopropyl-7-hydroxy-4-isobutyl-3-(3-(3-(methoxymethyl)pyrrolidin-1-yl)-3-oxoprop-1-en-1-yl)-2-methyl-5-oxo-4,5-dihydropyrazolo[1,5-a]pyrimidine-6-carboxamide] the IC50 was 1.17 nM. `COC[C@@H]1CCN(C(=O)/C=C/c2c(C)nn3c(O)c(C(=O)NC4CC4)c(=O)n(CC(C)C)c23)C1` [Synthesis Example 621, (R,E)-N-Cyclopropyl-7-hydroxy-4-isobutyl-3-(3-(3-(methoxymethyl)pyrrolidin-1-yl)-3-oxoprop-1-en-1-yl)-2-methyl-5-oxo-4,5-dihydropyrazolo[1,5-a]pyrimidine-6-carboxamide] showed an IC50 of 1.42 nM. Compound `Cc1nn2c(O)c(C(=O)NC3CC3)c(=O)n(CC(C)C)c2c1/C=C/C(=O)N1CCC(C(F)F)C1` (centres unmarked) [Synthesis Example 622, (E)-N-Cyclopropyl-3-(3-(3-(difluoromethyl)pyrrolidin-1-yl)-3-oxoprop-1-en-1-yl)-7-hydroxy-4-isobutyl-2-methyl-5-oxo-4,5-dihydropyrazolo[1,5-a]pyrimidine-6-carboxamide] has an IC50 of 1.03 nM. `Cc1nn2c(O)c(C(=O)NC3CC3)c(=O)n(CC(C)C)c2c1/C=C/C(=O)N1CC[C@H](C(C)(C)O)C1` [Synthesis Example 623, (S,E)-N-Cyclopropyl-7-hydroxy-3-(3-(3-(2-hydroxypropan-2-yl)pyrrolidine-1-yl)-3-oxoprop-1-en-1-yl)-4-isobutyl-2-methyl-5-oxo-4,5-dihydropyrazolo[1,5-a]pyrimidine-6-carboxamide] was tested, and the IC50 was 1.27 nM. Work on `Cc1nn2c(O)c(C(=O)NC3CC3)c(=O)n(CC(C)(C)C)c2c1/C=C/C(=O)N1[C@@H](C)COC[C@@H]1C` [Synthesis Example 624, N-Cyclopropyl-3-((E)-3-((3S,5S)-3,5-dimethylmorpholino)-3-oxoprop-1-en-1-yl)-7-hydroxy-2-methyl-4-neopentyl-5-oxo-4,5-dihydropyrazolo[1,5-a]pyrimidine-6-carboxamide] yielded an IC50 of 0.98 nM. Work on `Cc1nn2c(O)c(C(=O)NC3CC3)c(=O)n(CC(C)(C)C)c2c1/C=C/C(=O)N1CCOC[C@@H]1C` [Synthesis Example 625, (S,E)-N-Cyclopropyl-7-hydroxy-2-methyl-3-(3-(3-methylmorpholino)-3-oxoprop-1-en-1-yl)-4-neopentyl-5-oxo-4,5-dihydropyrazolo[1,5-a]pyrimidine-6-carboxamide] yielded an IC50 of 1.05 nM. `CCc1nn2c(O)c(C(=O)NC3CC3)c(=O)n(CC(C)C)c2c1/C=C/C(=O)N1[C@@H](C)COC[C@@H]1C` [Synthesis Example 626, N-Cyclopropyl-3-((E)-3-((3S,5S)-3,5-dimethylmorpholino)-3-oxoprop-1-en-1-yl)-2-ethyl-7-hydroxy-4-isobutyl-5-oxo-4,5-dihydropyrazolo[1,5-a]pyrimidine-6-carboxamide] gave an IC50 of 0.87 nM. Work on `Cc1nn2c(O)c(C(=O)NC3CC3)c(=O)n(CC(C)(C)C)c2c1/C=C/C(=O)N1CCC(F)(F)C1` [Synthesis Example 627, (E)-N-Cyclopropyl-3-(3-(3,3-difluoropyrrolidin-1-yl)-3-oxoprop-1-en-1-yl)-7-hydroxy-2-methyl-4-neopentyl-5-oxo-4,5-dihydropyrazolo[1,5-a]pyrimidine-6-carboxamide] yielded an IC50 of 0.94 nM. Work on `Cc1nn2c(O)c(C(=O)NC3CC3)c(=O)n(CC(C)C)c2c1/C=C/C(=O)N1C[C@H]2COC[C@H]2C1` [Synthesis Example 628, N-Cyclopropyl-7-hydroxy-4-isobutyl-2-methyl-5-oxo-3-((E)-3-oxo-3-((3aR,6aS)-tetrahydro-1H-furo[3,4-c]pyrrol-5(3H)-yl)prop-1-en-1-yl)-4,5-dihydropyrazolo[1,5-a]pyrimidine-6-carboxamide] yielded an IC50 of 0.84 nM. For `Cc1nn2c(O)c(C(=O)NC3CC3)c(=O)n(CC(C)C)c2c1/C=C/C(=O)N1CCC[C@@H]1C(C)C` [Synthesis Example 629, (R,E)-N-Cyclopropyl-7-hydroxy-4-isobutyl-3-(3-(2-isopropylpyrrolidin-1-yl)-3-oxoprop-1-en-1-yl)-2-methyl-5-oxo-4,5-dihydropyrazolo[1,5-a]pyrimidine-6-carboxamide], the IC50 was 1.14 nM. For `Cc1nn2c(O)c(C(=O)NC3CC3)c(=O)n(CC(C)C)c2c1/C=C/C(=O)N1CCC[C@H]1C(C)C` [Synthesis Example 630, (S,E)-N-Cyclopropyl-7-hydroxy-4-isobutyl-3-(3-(2-isopropylpyrrolidin-1-yl)-3-oxoprop-1-en-1-yl)-2-methyl-5-oxo-4,5-dihydropyrazolo[1,5-a]pyrimidine-6-carboxamide], the IC50 was 1.24 nM. Work on `Cc1nn2c(O)c(C(=O)NC3CC3)c(=O)n(CC(C)C)c2c1/C=C/C(=O)N1CCCC12CCOCC2` [Synthesis Example 631, (E)-N-Cyclopropyl-7-hydroxy-4-isobutyl-2-methyl-5-oxo-3-(3-oxo-3-(8-oxa-1-azaspiro[4.5]decan-1-yl)prop-1-en-1-yl)-4,5-dihydropyrazolo[1,5-a]pyrimidine-6-carboxamide] yielded an IC50 of 0.66 nM. For `Cc1nn2c(O)c(C(=O)NC3CC3)c(=O)n(CC(C)C)c2c1/C=C/C(=O)N1CCC[C@@H]1C(F)F` [Synthesis Example 632, (R,E)-N-Cyclopropyl-3-(3-(2-(difluoromethyl)pyrrolidin-1-yl)-3-oxoprop-1-en-1-yl)-7-hydroxy-4-isobutyl-2-methyl-5-oxo-4,5-dihydropyrazolo[1,5-a]pyrimidine-6-carboxamide], the IC50 was 1.51 nM.
